Measurements as given in article PMC3889466 (Journal of medicinal chemistry, 2013).

biological target: A/M2 wt (Influenza A virus, UniProt P0DOF5); test: not given; conditions: cited from earlier work
Sequence (P0DOF5 whole entry): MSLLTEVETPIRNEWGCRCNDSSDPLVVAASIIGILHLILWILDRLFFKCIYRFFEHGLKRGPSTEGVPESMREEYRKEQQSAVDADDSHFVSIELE

| SMILES | Activity against the wt A/M2 channel (in words) |
| --- | --- |
| C1C2C1C1C3C4C5C6CC6C4C14CNCC54C23 (centres unmarked) [Compound 11] | promising activity |
| NC12C3CCC4C3C3C(CCC31)C42 [Compound 8] | did not inhibit |
| NCC12C3CCC4C3C3C(CCC31)C42 [Compound 9] | did not inhibit |
| C1=CC2C3C4C5C=CC4C24CNCC54C13 [Compound 10] | promising activity |

system: Influenza A/H1N1 (A/PR/8/34); test: not given; assay type: cell-based, influenza A virus; conditions: read-out: Antiviral EC50 Influenza A/H1N1 CPE

| SMILES | EC50 |
| --- | --- |
| C1NCC23CC4CC12CC4C3.Cl [Compound 14b, 3-azatetracyclo[5.2.1.1^5,8.0^1,5]undecane hydrochloride] | > 100 µM |
| CC12CC34CN(C(=N)N)CC3(C1)CC2(C)C4.Cl [Compound 16a, 3-Amidino-7,8-dimethyl-3-azatetracyclo[5.2.1.1^5,8.0^1,5]undecane hydrochloride] | > 100 µM |
| Cl.N=C(N)N1CC23CC4CC2(CC4C3)C1 [Compound 16b, 3-Amidino-3-azatetracyclo[5.2.1.1^5,8.0^1,5]undecane hydrochloride] | > 50 µM |
| CN1CC23CC4(C)CC2(C1)CC4(C)C3.Cl [Compound 15a, 3,7,8-Trimethyl-3-azatetracyclo[5.2.1.1^5,8.0^1,5]undecane hydrochloride] | > 100 µM |
| CC12CC34CNCC3(C1)CC2(C)C4.Cl [Compound 14a, 7,8-Dimethyl-3-azatetracyclo[5.2.1.1^5,8.0^1,5]undecane hydrochloride] | > 100 µM |
| CN1CC23CC4CC2(CC4C3)C1.Cl [Compound 15b, 3-Methyl-3-azatetracyclo[5.2.1.1^5,8.0^1,5]undecane hydrochloride] | > 100 µM |
| Cl.N=C(N)N1CC23CC45CCCCC4(C2)CC3(C1)C5 [Compound 16d, 12-Amidino-12-azapentacyclo[6.5.1.1^3,10.0^1,10.0^3,8]pentadecane hydrochloride] | > 100 µM |
| C1CCC23CC45CNCC4(CC2(C1)C5)C3.O=C(O)C(O)C(O)C(=O)O [Compound 14d, 12-Azapentacyclo[6.5.1.1^3,10.0^1,10.0^3,8]pentadecane (2R,3R)-tartrate] | > 100 µM |

same assay, conditions: read-out: Antiviral EC50 Influenza A/H1N1 MTS

| SMILES | EC50 |
| --- | --- |
| C1NCC23CC4CC12CC4C3.Cl [Compound 14b, 3-azatetracyclo[5.2.1.1^5,8.0^1,5]undecane hydrochloride] | > 100 µM |
| CC12CC34CN(C(=N)N)CC3(C1)CC2(C)C4.Cl [Compound 16a, 3-Amidino-7,8-dimethyl-3-azatetracyclo[5.2.1.1^5,8.0^1,5]undecane hydrochloride] | > 100 µM |
| Cl.N=C(N)N1CC23CC4CC2(CC4C3)C1 [Compound 16b, 3-Amidino-3-azatetracyclo[5.2.1.1^5,8.0^1,5]undecane hydrochloride] | > 50 µM |
| CN1CC23CC4(C)CC2(C1)CC4(C)C3.Cl [Compound 15a, 3,7,8-Trimethyl-3-azatetracyclo[5.2.1.1^5,8.0^1,5]undecane hydrochloride] | > 100 µM |
| CC12CC34CNCC3(C1)CC2(C)C4.Cl [Compound 14a, 7,8-Dimethyl-3-azatetracyclo[5.2.1.1^5,8.0^1,5]undecane hydrochloride] | > 100 µM |
| CN1CC23CC4CC2(CC4C3)C1.Cl [Compound 15b, 3-Methyl-3-azatetracyclo[5.2.1.1^5,8.0^1,5]undecane hydrochloride] | > 100 µM |
| Cl.N=C(N)N1CC23CC45CCCCC4(C2)CC3(C1)C5 [Compound 16d, 12-Amidino-12-azapentacyclo[6.5.1.1^3,10.0^1,10.0^3,8]pentadecane hydrochloride] | > 100 µM |
| C1CCC23CC45CNCC4(CC2(C1)C5)C3.O=C(O)C(O)C(O)C(=O)O [Compound 14d, 12-Azapentacyclo[6.5.1.1^3,10.0^1,10.0^3,8]pentadecane (2R,3R)-tartrate] | > 100 µM |

system: MDCK cells; test: not given; conditions: dog

| SMILES | Cytotoxicity at 24 hr MCC |
| --- | --- |
| CC12CC34CN(C(=N)N)CC3(C1)CC2(C)C4.Cl [Compound 16a, 3-Amidino-7,8-dimethyl-3-azatetracyclo[5.2.1.1^5,8.0^1,5]undecane hydrochloride] | >50 µM |
| Cl.N=C(N)N1CC23CC4CC2(CC4C3)C1 [Compound 16b, 3-Amidino-3-azatetracyclo[5.2.1.1^5,8.0^1,5]undecane hydrochloride] | >50 µM |
| Cl.N=C(N)N1CC23CC45CCCCC4(C2)CC3(C1)C5 [Compound 16d, 12-Amidino-12-azapentacyclo[6.5.1.1^3,10.0^1,10.0^3,8]pentadecane hydrochloride] | ≥10 µM |
| NC(=O)c1ncn([C@@H]2O[C@H](CO)[C@@H](O)[C@H]2O)n1 [Ribavirin, reference compound] | >100 µM |

same assay, conditions: minimal alterations in cell morphology after 24 hr incubation

| SMILES | Cytotoxicity at 24 hr MCC |
| --- | --- |
| C1CCC23CC45CNCC4(CC2(C1)C5)C3.O=C(O)C(O)C(O)C(=O)O [Compound 14d, 12-Azapentacyclo[6.5.1.1^3,10.0^1,10.0^3,8]pentadecane (2R,3R)-tartrate] | >50 µM |
| CC(N)C12CC3CC(CC(C3)C1)C2 (centres unmarked) [Rimantadine, rimantadine, reference compound] | ≥500 µM |

system: A/HK/7/87; test: microbe, parasite or virus in culture; assay type: cell-based, influenza A virus; conditions: not given

| SMILES | Activity against A/HK/7/87 EC99 |
| --- | --- |
| CC12CC34CN(C(=N)N)CC3(C1)CC2(C)C4.Cl [Compound 16a, 3-Amidino-7,8-dimethyl-3-azatetracyclo[5.2.1.1^5,8.0^1,5]undecane hydrochloride] | 0.79 µM |
| Cl.N=C(N)N1CC23CC4CC2(CC4C3)C1 [Compound 16b, 3-Amidino-3-azatetracyclo[5.2.1.1^5,8.0^1,5]undecane hydrochloride] | ≥38 µM |
| Cl.N=C(N)N1CC23CC45CCCCC4(C2)CC3(C1)C5 [Compound 16d, 12-Amidino-12-azapentacyclo[6.5.1.1^3,10.0^1,10.0^3,8]pentadecane hydrochloride] | >2 µM |
| NC(=O)c1ncn([C@@H]2O[C@H](CO)[C@@H](O)[C@H]2O)n1 [Ribavirin, reference compound] | 11 µM |
| C1CCC23CC45CNCC4(CC2(C1)C5)C3.O=C(O)C(O)C(O)C(=O)O [Compound 14d, 12-Azapentacyclo[6.5.1.1^3,10.0^1,10.0^3,8]pentadecane (2R,3R)-tartrate] | >10 µM |
| CC(N)C12CC3CC(CC(C3)C1)C2 (centres unmarked) [Rimantadine, rimantadine, reference compound] | >4 µM |

same assay, conditions: Influenza A virus, MDCK, 24 h, read-out: Activity against A/HK/7/87 EC90

| SMILES | EC90 |
| --- | --- |
| CC12CC34CN(C(=N)N)CC3(C1)CC2(C)C4.Cl [Compound 16a, 3-Amidino-7,8-dimethyl-3-azatetracyclo[5.2.1.1^5,8.0^1,5]undecane hydrochloride] | < 1 µM |
| Cl.N=C(N)N1CC23CC45CCCCC4(C2)CC3(C1)C5 [Compound 16d, 12-Amidino-12-azapentacyclo[6.5.1.1^3,10.0^1,10.0^3,8]pentadecane hydrochloride] | < 1 µM |
| C1CCC23CC45CNCC4(CC2(C1)C5)C3.O=C(O)C(O)C(O)C(=O)O [Compound 14d, 12-Azapentacyclo[6.5.1.1^3,10.0^1,10.0^3,8]pentadecane (2R,3R)-tartrate] | < 1 µM |

same assay, conditions: listed as Amt

| SMILES | Activity against A/HK/7/87 EC99 |
| --- | --- |
| NC12CC3CC(CC(C3)C1)C2 [Amantadine, amantadine, reference compound] | ~ 1 μM |

system: MDCK cells; test: not given; conditions: MDCK, minimal alterations in cell morphology after 72 hr

| SMILES | Cytotoxicity at 72 hr MCC (minimum cytotoxic concentration) |
| --- | --- |
| C1CCC23CC45CNCC4(CC2(C1)C5)C3.O=C(O)C(O)C(O)C(=O)O [Compound 14d, 12-Azapentacyclo[6.5.1.1^3,10.0^1,10.0^3,8]pentadecane (2R,3R)-tartrate] | 4.0 µM |
| CC(N)C12CC3CC(CC(C3)C1)C2 (centres unmarked) [Rimantadine, rimantadine, reference compound] | 500 µM |

same assay, conditions: dog

| SMILES | Cytotoxicity at 72 hr MCC (minimum cytotoxic concentration) |
| --- | --- |
| C1NCC23CC4CC12CC4C3.Cl [Compound 14b, 3-azatetracyclo[5.2.1.1^5,8.0^1,5]undecane hydrochloride] | 100 µM |
| CC12CC34CN(C(=N)N)CC3(C1)CC2(C)C4.Cl [Compound 16a, 3-Amidino-7,8-dimethyl-3-azatetracyclo[5.2.1.1^5,8.0^1,5]undecane hydrochloride] | 4 µM |
| CN1CC23CC4(C)CC2(C1)CC4(C)C3.Cl [Compound 15a, 3,7,8-Trimethyl-3-azatetracyclo[5.2.1.1^5,8.0^1,5]undecane hydrochloride] | ≥20 µM |
| CC12CC34CNCC3(C1)CC2(C)C4.Cl [Compound 14a, 7,8-Dimethyl-3-azatetracyclo[5.2.1.1^5,8.0^1,5]undecane hydrochloride] | 100 µM |
| CN1CC23CC4CC2(CC4C3)C1.Cl [Compound 15b, 3-Methyl-3-azatetracyclo[5.2.1.1^5,8.0^1,5]undecane hydrochloride] | ≥100 µM |
| Cl.N=C(N)N1CC23CC45CCCCC4(C2)CC3(C1)C5 [Compound 16d, 12-Amidino-12-azapentacyclo[6.5.1.1^3,10.0^1,10.0^3,8]pentadecane hydrochloride] | 4.0 µM |
